Test results reported in article PMC11280475, “Investigation of Stabilized Amorphous Solid Dispersions to Improve Oral Olaparib Absorption” (Pharmaceutics, 2024).
Values after ≈ are worked out from the molar mass of the structure shown. Like-named read-outs stand apart in the source and are kept apart here.

Key:
[1] = Saturation solubility of OLA in aqueous solutions; assay type: physicochemical; conditions: pH 1.2, pH 4.0, pH 6.8, regardless of pH, 37 °C
Method: The solubility of OLA was evaluated in distilled water (D.W.), pH 1.2, pH 4.0, and pH 6.8 solutions. The pH 1.2 solution was prepared using 0.1 M hydrochloric acid and sodium chloride, while the pH 4.0 solution utilized a 0.05 M sodium acetate buffer solution, and the pH 6.8 solution was made by combining a 0.2 M potassium dihydrogen phosphate solution with a 0.2 M sodium hydroxide solution. To determine the saturation solubility, an excess amount of both crystalline OLA and amorphous OLA, totaling 10 mg each, was added to 1 mL of each solution. The mixtures were vortexed for 10 min and then shaken at 100 rpm in a 37 °C water bath for 72 h. After centrifugation at 13,500 rpm for 10 min, the supernatant was filtered through a 0.45 μm syringe filter to remove insoluble OLA. The resultant solution was diluted tenfold with the HPLC mobile phase, and the concentration of OLA in each solution was measured using the HPLC system mentioned in Section 2.2. Subsequently, to assess the kinetic solubility of OLA, a dissolution test was conducted using 150 mg of both crystalline and amorphous OLA in 900 mL of each aforementioned solution. […] Samples (3 mL) were taken at predetermined times (0.5, 1, 2, 3, 4, 6, 12 h), filtered through a 0.45 μm syringe filter, diluted tenfold with the HPLC mobile phase, and analyzed using the same HPLC system. […]

[2] = In vivo pharmacokinetic study after oral administration; set-up: species or system Sprague Dawley (SD) rats; conditions: rats, 20 mg/kg; for AUC(0-t): read-out: AUC0–24
Method: Male Sprague Dawley (SD) rats (age: 9–10 weeks, weight: 250 ± 20 g) for the in vivo pharmacokinetic study of OLA-SD were purchased from Koatech Co. (Pyeongtaek, Republic of Korea). The rats were acclimatized to standard laboratory conditions (average temperature of 25 ± 2 °C and a 12/12 h light/dark cycle) for one week before the experiment, with unrestricted access to food and drinking water ad libitum. The Institutional Animal Care and Use Committee (IACUC) of Gyeongsang National University (Approval No. GNU-240228-R0049) approved the animal study protocol in accordance with NIH policies and the Animal Welfare Act. The SD rats were randomly divided into four groups, each consisting of six rats. Each rat was anesthetized, and the right femoral artery was cannulated using a polyethylene tube. Crystalline OLA, amorphous OLA, Kollidon VA64-based OLA-SD (F1), and HPMC P645-based OLA-SD (F3) were dispersed in 1 mL of 0.5% carboxymethyl cellulose and administered orally to the rats at a dose of 20 mg/kg. Blood (350 μL) was collected through the cannulated tube at 0.25, 0.5, 1, 2, 3, 6, 9, 12, and 24 h and immediately centrifuged at 13,500 rpm for 15 min at 4 °C. Subsequently, plasma was separated from the supernatant and stored at −20 °C until quantitative analysis. To analyze the plasma samples, 50 μL of internal standard solution (canagliflozin 20 μg/mL in acetonitrile) and 300 μL of acetonitrile were added to 150 μL of plasma. The samples were then mixed in a vortex blender for 3 min for deproteinization and drug extraction. Subsequently, the samples were centrifuged at 13,500 rpm for 15 min at 4 °C. The supernatant was filtered using a 0.2 μm filter and transferred to analytical vials for HPLC analysis. The concentration of OLA in plasma was analyzed using the second HPLC conditions mentioned in Section 2.2. Pharmacokinetic parameters calculated using non-compartmental analysis included the area under the plasma concentration–time curve from 0 to 24 h (AUC0–24), the maximum plasma concentration (Cmax), the time to reach maximum plasma concentration (Tmax), the elimination rate constant (Kel), the half-life (T1/2), and the mean residence time (MRT).
The formula for calculating AUC is as follows: AUC=∑i=1n−1(Ci+Ci+1)/2×[…] where Ci and Ci+1 are the concentration of the drug at consecutive time points, ti and ti+1 are the corresponding time points, and n is the number of measured data points.
The formula for calculating Cmax is as follows: Cmax=max(Ct) where Ct is the concentration of the drug at time t.
The formula for calculating Tmax is Tmax=t at which Ct is maximal
The formula for calculating Kel is […] where C1 and C2 are the concentration of the drug at two consecutive time points during the elimination phase, and t1 and t2 are the corresponding time points.
The formula for calculating T1/2 is T1/2=ln2/Kel where Kel is the elimination rate constant.
The formula for calculating MRT is MRT=AUMC/AUC where AUMC is the area under the moment curve and AUC is the area under the curve.

[3] = In vitro dissolution test (USP apparatus II); assay type: physicochemical; conditions: 300 mL, 37 °C, 50 rpm, 150 mg OLA equivalent
Method: To assess the in vitro release of OLA from the solid dispersions, a dissolution test was performed under conditions similar to those described in Section 2.3. Briefly, the dissolution media were adjusted to pH 1.2 and pH 6.8 (300 mL each), with the temperature maintained at 37 ± 0.5 °C, and the test was conducted at a paddle speed of 50 rpm. Each sample of the OLA-SD, equivalent to 150 mg of OLA, was immersed in the dissolution media. Additionally, to examine the effect of polymers in the solid dispersion, a parallel dissolution test was conducted with 150 mg each of crystalline OLA and amorphous OLA. As mentioned, the solution was sampled at predetermined times (1, 6, 12, 18, 24, 48, and 72 h) and the concentration of OLA was assessed using an HPLC system. Additionally, after the kinetic dissolution tests in the pH 1.2 solution, the solution was centrifuged, the supernatant was removed, and the remaining OLA-SD residue was dried overnight for 12 h. The crystallinity state of the dried OLA-SD was examined using an X-ray diffractometer. The detailed method is described in Section 2.6.3.

[4] = Kinetic solubility of OLA in 1% (w/v) polymer solutions; assay type: physicochemical; conditions: thermodynamic from solid, amorphous OLA
Method: (§1) The polymers used to select the appropriate polymer for OLA-SD were chosen from those widely utilized in solid dispersions. To select the polymers for the solid dispersion system, the solubility of OLA in 1% (w/v) polymer solutions was assessed. Initially, 10 mg of crystalline OLA was added to 1 mL of each polymer solution, vortexed for 10 min, and then shaken at 100 rpm in a 37 °C water bath for 72 h. This process followed the saturation solubility evaluation method described in Section 2.3. Subsequently, to evaluate the kinetic solubility of OLA, both crystalline and amorphous forms, totaling 10 mg, were added to 10 mL of the selected polymer solutions, based on the results of the OLA saturation solubility tests. After vortexing for 10 min, the samples were shaken under the same conditions. During this 72 h period, samples were collected at predetermined intervals of 1, 6, 12, 24, 48, and 72 h, and the concentration of OLA was measured through HPLC analysis.

[5] = cited from earlier work
[6] = Saturation solubility of crystalline OLA in 1% (w/v) polymer solutions; assay type: physicochemical; conditions: 37 °C
Method: as §1

[7] = male, Sprague Dawley, rat, plasma, po, mean ± S.D. (n = 6)

Q: Which saturation solubility ([1]; 72 h) does the source give for O=C(c1cc(Cc2n[nH]c(=O)c3ccccc23)ccc1F)N1CCN(C(=O)C2CC2)CC1 [Amorphous OLA, olaparib] here?
A: Its saturation solubility is “around 100 µg/mL”.

Q: And the AUC0–24 [2]?
A: Its AUC0–24 is 471 ± 150 ng·h/mL.

Q: And the Cmax [2]?
A: Its Cmax is 415 ± 148 ng/mL.

Q: What about the “increase of AUC0–24 over crystalline OLA” value ([2]; compared to crystalline OLA) of the same molecule?
A: The value was 1.27 fold.

Q: And the “increase of Cmax over crystalline OLA” value ([2]; compared to crystalline OLA)?
A: The value was 2.22 fold.

Q: And the “AUC0–24” value ([2]; mean ± S.D. (n = 6))?
A: The value was 471.40 ± 150.17 ng·h/mL.

Q: And the Cmax ([2]; mean ± S.D. (n = 6))?
A: Its Cmax is 415.24 ± 148.20 ng/mL.

Q: And the Kel ([2]; mean ± S.D. (n = 6))?
A: The Kel was 0.20 ± 0.05 h⁻¹.

Q: And the MRT ([2]; mean ± S.D. (n = 6))?
A: The MRT was 4.28 ± 4.52 h.

Q: And the T1/2 ([2]; mean ± S.D. (n = 6))?
A: Its T1/2 is 3.68 ± 1.04 h.

Q: And the Tmax ([2]; mean ± S.D. (n = 6))?
A: Its Tmax is 0.29 ± 0.10 h.

Q: What about the dissolution rate ([3]; pH 1.2, 1 h) of the same molecule?
A: Its dissolution rate is 43.4 ± 3.3%.

Q: And the dissolution rate ([3]; pH 1.2, 72 h)?
A: The dissolution rate was 28.2 ± 3.9%.

Q: What about the dissolution rate ([3]; pH 6.8, 1 h) of the same molecule?
A: Its dissolution rate is 44.6 ± 3.1%.

Q: What about the dissolution rate ([3]; pH 6.8, 72 h) of the same molecule?
A: The dissolution rate was 27.0 ± 3.0%.

Q: What about the solubility kinetic at 1 h ([4]; 1% (w/v) HP-β-CD solution, aqueous with cosolvent or surfactant or cyclodextrin, 1% (w/v) HP-β-CD, 37 °C, read-out: kinetic solubility in HP-β-CD at 1 h) of the same molecule?
A: The solubility kinetic at 1 h was 337 ± 29.7 µg/mL (≈ 775 µM).

Q: What about the solubility kinetic at 72 h ([4]; 1% (w/v) HP-β-CD solution, aqueous with cosolvent or surfactant or cyclodextrin, 1% (w/v) HP-β-CD, 37 °C, read-out: kinetic solubility in HP-β-CD at 72 h) of the same molecule?
A: The solubility kinetic at 72 h was 398 ± 10.9 µg/mL (≈ 916 µM).

Q: What about the solubility kinetic at 1 h ([4]; 1% (w/v) HPMC P645 solution, 1% (w/v) HPMC P645, 37 °C, read-out: kinetic solubility in HPMC P645 at 1 h) of the same molecule?
A: Its solubility kinetic at 1 h is 247 ± 43.6 µg/mL (≈ 569 µM).

Q: What about the solubility kinetic at 72 h ([4]; 1% (w/v) HPMC P645 solution, 1% (w/v) HPMC P645, 37 °C, read-out: kinetic solubility in HPMC P645 at 72 h) of the same molecule?
A: Its solubility kinetic at 72 h is 353 ± 44.2 µg/mL (≈ 813 µM).

Q: And the solubility kinetic at 1 h ([4]; 1% (w/v) Kollidon VA64 solution, 1% (w/v) Kollidon VA64, 37 °C, read-out: kinetic solubility in Kollidon VA64 at 1 h)?
A: The solubility kinetic at 1 h was 593 ± 72.9 µg/mL (≈ 1360 µM).

Q: And the solubility kinetic at 72 h ([4]; 1% (w/v) Kollidon VA64 solution, 1% (w/v) Kollidon VA64, 37 °C, read-out: kinetic solubility in Kollidon VA64 at 72 h)?
A: The solubility kinetic at 72 h was 343 ± 6.5 µg/mL (≈ 790 µM).

Q: With O=C(c1cc(Cc2n[nH]c(=O)c3ccccc23)ccc1F)N1CCN(C(=O)C2CC2)CC1 [Crystalline OLA, olaparib] as the molecule, how does the “solubility in aqueous solution” value ([5]; aqueous solution) read?
A: The value was “approximately 0.1 mg/mL”.

Q: What about the “basic pKa” value [5] of the same molecule?
A: The value was −1.25.

Q: And the “Biopharmaceutics Classification System (BCS) class” value ([5]; low solubility and low permeability)?
A: Its value is “class IV”.

Q: What about the solubility at 72 h ([1]; aqueous pH solutions) of the same molecule?
A: The solubility at 72 h was about 100 µg/mL (≈ 230 µM).

Q: And the half-life [2, 7]?
A: Its half-life is 4.18 ± 2.27 h.

Q: And the k el [2, 7]?
A: The k el was 5.28e-05 s⁻¹.

Q: What about the AUC(0-t) [2, 7] of the same molecule?
A: The AUC(0-t) was 370 ± 63.8 ng·h/mL.

Q: What about the MRT ([2]; male, Sprague Dawley, rat, plasma, po, mean ± S.D. (n = 6), read-out: MRT) of the same molecule?
A: The MRT was 2.97 ± 0.69 h.

Q: And the AUC(0-t) ([2]; male, Sprague Dawley, rat, plasma, po)?
A: Its AUC(0-t) is 370 ± 63.8 ng·h/mL.

Q: And the Cmax [2]?
A: Its Cmax is 187 ± 82.5 ng/mL.

Q: And the Cmax ([2]; mean ± S.D. (n = 6))?
A: The Cmax was 187.31 ± 82.55 ng/mL.

Q: And the Tmax ([2]; mean ± S.D. (n = 6))?
A: The Tmax was 0.63 ± 0.31 h.

Q: What about the solubility at 72 h ([6]; crystalline OLA in 1% (w/v) HP-β-CD solution, read-out: saturation solubility in HP-β-CD) of the same molecule?
A: The solubility at 72 h was about 180 µg/mL (≈ 414 µM).

Q: What about the solubility at 72 h ([6]; crystalline OLA in 1% (w/v) polymer solutions other than HP-β-CD, read-out: saturation solubility in most other polymer solutions) of the same molecule?
A: The solubility at 72 h was under 150 µg/mL.
